Values of other authors in patent US9617279B1, “Imidazooxadiazole compounds” (BRISTOL-MYERS SQUIBB COMPANY, priority 2014, dated 2017).

Experiments:
[1] = target: T1, protease-activated receptor type 4 (PAR4) (Homo sapiens, UniProt Q96RI0); conditions: abstract of Lee et al. 2001
T1 sequence (Q96RI0 18-385): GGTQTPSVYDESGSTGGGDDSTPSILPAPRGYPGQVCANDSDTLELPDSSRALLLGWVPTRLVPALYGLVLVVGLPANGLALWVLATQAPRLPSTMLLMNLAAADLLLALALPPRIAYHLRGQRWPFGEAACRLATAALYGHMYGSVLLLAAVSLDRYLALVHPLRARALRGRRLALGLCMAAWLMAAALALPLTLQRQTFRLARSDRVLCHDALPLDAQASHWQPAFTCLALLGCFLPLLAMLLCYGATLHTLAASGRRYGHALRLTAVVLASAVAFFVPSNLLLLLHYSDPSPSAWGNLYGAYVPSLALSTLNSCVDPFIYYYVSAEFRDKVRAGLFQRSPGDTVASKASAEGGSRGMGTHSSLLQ

PAR1 = target: T2, PAR1 (Homo sapiens, UniProt P25116); conditions: ACS patients, phase III
T2 sequence (P25116 22-425): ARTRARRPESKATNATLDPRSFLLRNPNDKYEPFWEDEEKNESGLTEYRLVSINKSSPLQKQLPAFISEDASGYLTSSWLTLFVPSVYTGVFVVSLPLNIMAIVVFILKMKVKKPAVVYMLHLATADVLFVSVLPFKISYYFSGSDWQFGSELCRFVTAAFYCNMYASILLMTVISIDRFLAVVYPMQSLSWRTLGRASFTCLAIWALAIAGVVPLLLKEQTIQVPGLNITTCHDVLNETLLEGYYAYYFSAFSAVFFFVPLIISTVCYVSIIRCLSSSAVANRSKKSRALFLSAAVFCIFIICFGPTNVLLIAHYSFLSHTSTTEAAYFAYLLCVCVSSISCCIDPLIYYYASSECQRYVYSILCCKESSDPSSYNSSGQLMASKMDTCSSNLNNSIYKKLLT

risk of major bleeding (PAR1) | SMILES | inhibition of PAR4-dependent platelet activation [1] | cardiovascular events (PAR1)
 | CCOC(=O)c1ccc(-c2nn(Cc3ccccc3)c3ccccc23)cc1 [ethyl 4-(1-benzyl-1H-indazol-3-yl)benzoate] | selective and potent inhibitor | 
significantly increased | CCOC(=O)N[C@@H]1CC[C@@H]2[C@@H](C1)C[C@H]1C(=O)O[C@H](C)[C@H]1[C@H]2/C=C/c1ccc(-c2cccc(F)c2)cn1 [vorapaxar] |  | did not significantly reduce
